Assay results from patent US20200345746A1, “Oxazine Derivative for Use in the Prevention of Alzheimer's Disease in at Risk Patents” (Novartis AG, priority 2016, published 2020).
“Also recorded” adds a separate entry of the source. Like-named read-outs stand apart in the source and are kept apart here.

Assays:
[1] = off-target binding or activity
total Aβ (40+42) = experiment: Formic acid soluble total Aβ (40+42) and Aβ42/40 ratio in APP23 mouse forebrain; assay type: in vivo
Protocol: (§1) Frozen mouse forebrains were weighed and homogenized in 9 volumes (w/v) of ice-cold TBS-Complete (20 mM Tris-HCl pH 7.4, 137 mM NaCl, 1× Complete [Protease Inhibitor Cocktail Tablets: 1 836 145, Roche Diagnostics GmbH, Penzberg, Germany]) by sonication (90% duty cycle, output control 5, 40-55 pulses, [Sonifier 450, Branson]). After homogenization several 50 μl aliquots were prepared for analysis and were stored at −80° C.
Fifty microliter of forebrain homogenate was mixed with 116.6 μl 100% formic acid, resulting in a final formic acid concentration of 70%. Samples were stored on ice and vortexed every 5 minutes. For neutralization, 50 μl of the mixture were pipetted into a new tube, and 950 μl of 1 M Tris base, containing 1× Complete Protease inhibitor, was added. Tubes were stored at room temperature overnight and then centrifuged for 15 minutes at 14000 rpm in an Eppendorf Microzentrifuge at 4° C. From the top layer, 100 μl are removed and mixed with 100 μl of 3% Blocker A solution (part of the MesoScale assay kit). This sample was either directly applied to the assay plate (dilution 1:1332) or further diluted in 1% Blocker A solution.

Aβ42 = experiment: First-in-human study: Aβ42 in CSF; assay type: in vivo; details: 2 weeks
Excerpt: The purpose of this study was to determine the single and multiple maximum tolerated dose of Compound 1 and to assess the pharmacokinetic/pharmacodynamic (PK/PD) relationship using Aβ in CSF as primary PD biomarker.
(§2) In the completed first-in-human and 3-month dose-ranging safety and tolerability clinical studies described in Examples 5 and 6, Aβ concentrations in CSF were obtained by means of lumbar punctures before the first dose (baseline) and respectively after 2 weeks and 3 months of multiple dosing. ApoE4 genotype also was obtained in the subjects who consented. The percent change from baseline in Aβ40 and Aβ42 concentrations was calculated in subjects who took the study treatment and had no major protocol deviation with potential impact on the evaluation of the pharmacodynamic effect. Tables 18 to 21 below provide summary statistics of the percent change from baseline by treatment group and ApoE genotype (E4 heterozygotes versus E4 non-carriers). Only one subject with CSF data was E4 homozygote (from the 3-month dose-ranging safety and tolerability study).

[2] = 3-month dose-ranging study: plasma pharmacokinetics (Cmax,ss); assay type: in vivo, human; details: Day 91, 85 mg qd.
[3] = in vivo; for AUCblood (AUC0-24 h): po
Excerpt: Blood samples were used to analyze whole-blood compound levels and were obtained either from tail-vein during the in-life part into EDTA tubes (CB300, Sarstedt, Germany) or from trunk blood at the day of necropsy into EDTA Eppendorf tubes (Milian S A, CatNoTOM-14, Fisher Scientific, Wohlen, Switzerland), or into serum tubes (CB300Z, Sarstedt, Nümbrecht, Germany).
Brain was removed immediately after decapitation, rinsed with saline and sectioned sagitally down the midline. The left half of the cerebellum was used to analyze compound level and was placed into a glass tube (Chromacol, 125×5-SV T051, Welwyn Garden City, United Kingdom), weighed and frozen in dry-ice, the left half of the forebrain (without olfactory bulb) was used for Aβ analysis, and was frozen on a metal plate on dry ice and placed into protein Lo-bind tube (003 0108.116, Eppendorf, Hamburg, Germany).
Ventral and dorsal skin were taken to analyze compound level, weighed and frozen on dry-ice.
Brain samples were mixed with 2 volumes of KH2PO4 buffer and homogenized using the Covaris® device. Skin samples were mixed with approx. 6-fold volumes of methanol/water and homogenized using a Precellys tube. Either 30 μL of blood, brain or skin homogenate were spiked with a structurally related internal standard and subsequently mixed with an at least 6-fold excess volume acetonitrile for protein precipitation. The supernatant was injected directly into the LC/MS/MS system for analysis.
For tissue exposure, only data at 4 and 24 h were available.

Aβ40 = experiment: 3-month dose-ranging study: Aβ40 in CSF; assay type: in vivo, human; details: for Aβ40 % change from baseline, Mean (SD) / Aβ40 % change from baseline, Median: CSF, 3 months
Excerpt: This study is listed in ClinicalTrials.gov under the NCT02576639 Identifier code.
The primary purpose of this study was to expand on previous safety and tolerability data obtained over 2-week and 4-week duration in the first in human study and thereby allow initiation of future long-term efficacy trials in subjects at risk of AD. In addition, data relevant for Pharmacokinetic/Pharmacodynamic modeling was obtained in order to support dose selection decisions for future efficacy studies.
as §2

C57BL/6 mice = experiment: Fur colour scoring, chronic 8-week dosing in wild-type mice; assay type: in vivo, mouse; details: 8 and 50 μmol/kg p.o. once daily, 8 weeks
Protocol: Compound 1 and NB-360 were formulated as a suspension. […] Vehicle: […] in 0.5% methylcellulose in water.
Body weight was taken 3 times per week (Monday, Wednesday, Friday). Subjective scoring of any hair colour changes was performed once weekly (Wednesday). Scores (% of body with grey fur): 0: No change; 1: Spots; 2: >30%; 3: >50%; 4: >75%; 5: 100%. Animals were photo-documented when fur color change was observed. Final fur color scoring was performed blinded and by a person not involved in the study.

sAPPβ (Swe) = experiment: Triton TX-100 soluble sAPPβ (Swe) in APP23 mouse brain; assay type: in vivo; details: APP23 mice
Protocol: as §1
Brain homogenates were extracted with 1% Triton X-100 in buffer and the resulting supernatant was considered to represent soluble forms of APP metabolites. In addition to Aβ40 and 42, we determined the N-terminal APP fragments sAPPα (direct cleavage product of α-secretase) and sAPPβ (Swe) (direct product of BACE1 cleavage). […] Since no change in the APP expression and Aβ generation is known to happen during this age, it is assumed that the increased values in the vehicle group (18-20 mo old) arise from “leakage” out of the Aβ deposits (which increase several fold, see below).

SMILES: C[C@@]1(c2nc(NC(=O)c3ncc(C(F)(F)F)cc3Cl)ccc2F)CO[C@@](C)(C(F)(F)F)C(N)=N1 [Compound 1, N-(6-((3R,6R)-5-amino-3,6-dimethyl-6-(trifluoromethyl)-3,6-dihydro-2H-1,4-oxazin-3-yl)-5-fluoropyridin-2-yl)-3-chloro-5-(trifluoromethyl)picolinamide]
- off-target binding or activity [1]: no relevant off-target binding or activity
- Formic acid soluble Total Aβ change vs vehicle (total Aβ (40+42); APP23, 0.03 g/kg vs vehicle): −17.9%
- Formic acid soluble Total Aβ change vs vehicle (total Aβ (40+42); APP23, 0.3 g/kg vs vehicle): −79.8%
- reduction of deposited Aβ40 and Aβ42 vs vehicle (total Aβ (40+42); APP23, high dose): around 80%
- reduction of deposited Aβ40 and Aβ42 compared to vehicles (total Aβ (40+42); APP23, low dose): around 17%
- Aβ42 % change from baseline, Mean (SD) (Aβ42; 10 mg, E4 heterozygotes): −59 (11) %
- Aβ42 % change from baseline, Median (Aβ42; 10 mg, E4 heterozygotes): −64%
- Aβ42 % change from baseline, Mean (SD) (Aβ42; 10 mg, E4 non-carriers): −58 (11) %
- Aβ42 % change from baseline, Median (Aβ42; 10 mg, E4 non-carriers): −59%
- Aβ42 % change from baseline, Mean (SD) (Aβ42; 30 mg, E4 non-carriers): −80 (6) %
- Aβ42 % change from baseline, Median (Aβ42; 30 mg, E4 non-carriers): −82%
- Aβ42 % change from baseline, Mean (SD) (Aβ42; 90 mg, E4 heterozygotes): −87 (2) %
- Aβ42 % change from baseline, Median (Aβ42; 90 mg, E4 heterozygotes): −87%
- Aβ42 % change from baseline, Mean (SD) (Aβ42; 90 mg, E4 non-carriers): −86 (5) %
- Aβ42 % change from baseline, Median (Aβ42; 90 mg, E4 non-carriers): −87%
- Aβ42 % change from baseline, Mean (SD) (Aβ42; 300 mg, E4 heterozygotes (n 1)): −89%
- Aβ42 % change from baseline, Median (Aβ42; 300 mg, E4 heterozygotes (n 1)): −89%
- Aβ42 % change from baseline, Mean (SD) (Aβ42; 300 mg, E4 non-carriers): −92 (1) %
- Aβ42 % change from baseline, Median (Aβ42; 300 mg, E4 non-carriers): −91%
- Cmax, ss, Mean [2]: 602 ng/mL
- AUCbrain (AUC0-24 h) ([3]; C57BL/6, mouse, 8 umol/kg): 11.61 µmol·h/kg
- AUCbrain (AUC0-24 h) ([3]; C57BL/6, mouse, 50 umol/kg): 88.93 µmol·h/kg
- reduction of blood exposure, last day vs beginning of experiment ([3]; C57BL/6, mouse, 8 weeks): around 35%
- AUCblood (AUC0-24 h) ([3]; C57BL/6, mouse, 8 umol/kg): 3.49 µM·h
- AUCblood (AUC0-24 h) ([3]; C57BL/6, mouse, 50 umol/kg): 18.53 µM·h
- rel. AUCdorsal skin ([3]; mouse): 12.6
- rel. AUCventral skin ([3]; mouse): 16.8
- AUCdorsal skin (AUC0-24 h) ([3]; mouse, 8 umol/kg): 54.3 µmol·h/kg
- AUCventral skin (AUC0-24 h) ([3]; mouse, 8 umol/kg): 78.29 µmol·h/kg
- AUCdorsal skin (AUC0-24 h) ([3]; mouse, 50 umol/kg): 271.6 µmol·h/kg
- AUCventral skin (AUC0-24 h) ([3]; mouse, 50 umol/kg): 308.7 µmol·h/kg
- Aβ40 % change from baseline, Mean (SD) (Aβ40; 2 mg, E4 heterozygotes): −21 (11) %
- Aβ40 % change from baseline, Median (Aβ40; 2 mg, E4 heterozygotes): −18%
- Aβ40 % change from baseline, Mean (SD) (Aβ40; 2 mg, E4 non-carriers): −24 (9) %
- Aβ40 % change from baseline, Median (Aβ40; 2 mg, E4 non-carriers): −22%
- Aβ40 % change from baseline, Mean (SD) (Aβ40; 10 mg, E4 heterozygotes): −67 (7) %
- Aβ40 % change from baseline, Median (Aβ40; 10 mg, E4 heterozygotes): −64%
- Aβ40 % change from baseline, Mean (SD) (Aβ40; 10 mg, E4 non-carriers): −64 (6) %
- Aβ40 % change from baseline, Median (Aβ40; 10 mg, E4 non-carriers): −65%
- Aβ40 % change from baseline, Mean (SD) (Aβ40; 35 mg, E4 heterozygotes): −84 (3) %
- Aβ40 % change from baseline, Median (Aβ40; 35 mg, E4 heterozygotes): −85%
- Aβ40 % change from baseline, Mean (SD) (Aβ40; 35 mg, E4 non-carriers): −82 (5) %
- Aβ40 % change from baseline, Median (Aβ40; 35 mg, E4 non-carriers): −83%
- Aβ40 % change from baseline, Mean (SD) (Aβ40; 85 mg, E4 heterozygotes): −91 (0) %
- Aβ40 % change from baseline, Median (Aβ40; 85 mg, E4 heterozygotes): −91%
- Aβ40 % change from baseline, Mean (SD) (Aβ40; 85 mg, E4 non-carriers): −91 (2) %
- Aβ40 % change from baseline, Median (Aβ40; 85 mg, E4 non-carriers): −90%
- difference in CSF Aβ40 and Aβ42 response between ApoE4 carriers and non-carriers (Aβ40; first-in-human (2 weeks) and 3-month studies): no difference in CSF Aβ40 and Aβ42 response to treatment
- PD steady-state (Aβ lowering) reached after (Aβ40; healthy elderly subjects, once-daily dosing): 2-3 weeks
- Aβ40 in CSF percent change from baseline, Difference (90% CI) Cmpd 1-Placebo (Aβ40; month 3, 2 mg QD): −19.87 (−23.09, −16.65) %
- Aβ40 in CSF percent change from baseline, LSmean (SE) (Aβ40; month 3, 2 mg QD): −22.66 (1.355) %
- Aβ40 in CSF percent change from baseline, Difference (90% CI) Cmpd 1-Placebo (Aβ40; month 3, 10 mg QD): −60.18 (−63.43, −56.92) %
- Aβ40 in CSF percent change from baseline, LSmean (SE) (Aβ40; month 3, 10 mg QD): −62.96 (1.388) %
- Aβ40 in CSF percent change from baseline, Difference (90% CI) Cmpd 1-Placebo (Aβ40; month 3, 35 mg QD): −80.41 (−83.59, −77.22) %
- Aβ40 in CSF percent change from baseline, LSmean (SE) (Aβ40; month 3, 35 mg QD): −83.19 (1.325) %
- Aβ40 in CSF percent change from baseline, Difference (90% CI) Cmpd 1-Placebo (Aβ40; month 3, 85 mg QD): −87.62 (−90.93, −84.30) %
- Aβ40 in CSF percent change from baseline, LSmean (SE) (Aβ40; month 3, 85 mg QD): −90.40 (1.429) %
- fur colour change (C57BL/6 mice): no apparent fur color change detectable; also recorded: did not show signs of hair discoloration
- sAPPβ (Swedish) change vs vehicle (sAPPβ (Swe); 0.03 g/kg vs vehicle): −29.0%
- sAPPβ (Swedish) change vs vehicle (sAPPβ (Swe); 0.3 g/kg vs vehicle): −77.7%
- reduction of soluble APP (Swe) (sAPPβ (Swe); low dose 0.03 g/kg food): 29%
